Data as given in paper PMC5734042, “Deciphering the Origin, Evolution, and Physiological Function of the Subtelomeric Aryl-Alcohol Dehydrogenase Gene Family in the Yeast Saccharomyces cerevisiae” (Applied and Environmental Microbiology, 2017).
Each block holds one molecule with its values, some of them ahead of it.

What was measured:
Settings in all cases: NADPH co-substrate
PcAad1p = target: T1, PcAad1p (Phanerodontia chrysosporium, UniProt Q01752); assay: spectrophotometric NADPH consumption at […] nm; type: biochemical
T1 construct: full length, plasmid pGS-21a-PcAad1, N-terminal His6-GST and C-terminal His6 tags kept, E. coli BL21 Star; coding primer starts ATGAACATCTGGGCACCCG (MNIWAP)
T1 sequence (Q01752 1-385): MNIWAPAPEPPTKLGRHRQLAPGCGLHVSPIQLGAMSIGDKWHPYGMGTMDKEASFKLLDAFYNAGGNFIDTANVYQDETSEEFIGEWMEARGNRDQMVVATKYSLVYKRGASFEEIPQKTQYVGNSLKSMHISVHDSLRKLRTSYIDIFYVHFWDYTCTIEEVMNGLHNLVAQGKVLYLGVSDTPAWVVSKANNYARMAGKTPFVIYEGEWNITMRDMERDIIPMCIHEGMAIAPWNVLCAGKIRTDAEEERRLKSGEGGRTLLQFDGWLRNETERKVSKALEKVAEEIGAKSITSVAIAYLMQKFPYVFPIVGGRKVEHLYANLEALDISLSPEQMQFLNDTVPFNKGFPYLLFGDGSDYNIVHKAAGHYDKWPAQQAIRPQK

ScAad10^-35Cp = target: T2, ScAad10^-35Cp (Saccharomyces cerevisiae, UniProt P47182); assay: spectrophotometric NADPH consumption at […] nm; type: biochemical
T2 construct: gene AAD10; resurrected pseudogene: in-frame upstream 264 bp (88 residues) restored to annotated Aad10, stop TAG to CAG (Gln) at nt -35; annotated natural ORF (YJR155W) lacks these residues; N-terminal His6-GST and C-terminal His6 tags, E. coli BL21 Star
T2 sequence (P47182 1-288): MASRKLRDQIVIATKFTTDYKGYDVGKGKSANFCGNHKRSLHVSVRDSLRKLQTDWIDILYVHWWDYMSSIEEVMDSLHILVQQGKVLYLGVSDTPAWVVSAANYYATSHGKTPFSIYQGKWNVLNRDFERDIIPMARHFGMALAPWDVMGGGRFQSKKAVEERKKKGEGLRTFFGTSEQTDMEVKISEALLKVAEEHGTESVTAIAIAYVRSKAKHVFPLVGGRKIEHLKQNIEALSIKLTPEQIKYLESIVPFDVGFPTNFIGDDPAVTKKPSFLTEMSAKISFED

purified protein = substrate: O=Cc1ccc(CO)o1; assay: purified protein; type: biochemical, Phanerodontia chrysosporium

Molecule: COc1ccc(C=O)cc1 [4-methoxybenzaldehyde]
Km (PcAad1p): 87.3 ± 116 µM

Km (ScAad10^-35Cp): 608 ± 246 µM
Molecule: O=Cc1ccc(CO)o1 [hydroxymethylfurfural]

Molecule: O=CCc1ccccc1 [phenylacetaldehyde]
Km (PcAad1p): 527 ± 72.5 µM

B1: PcAad1p (Phanerodontia chrysosporium) (protein)
chain: T1 sequence (Q01752 1-385)
notes: full length, plasmid pGS-21a-PcAad1, N-terminal His6-GST and C-terminal His6 tags kept, E. coli BL21 Star; coding primer starts … (MNIWAP)
Km (purified protein): 171 ± 36.7 µM
Vmax (purified protein): 2.40 ± 0.27 in micromoles per minute per mg
